# Legend:
# Format in all cases: binding
# 14-3-3σ/C-RAF259 [1] = target: T1, 14-3-3σ/C-RAF259 (Homo sapiens, UniProt P31947); test: Fluorescence anisotropy (FA) compound titration; settings: 10 nM C-RAF259-FAM 10-mer, 5 μΜ 14-3-3σ, overnight; read-out: Compound titrations EC50 value C-RAF259
# Procedure: (§1) In analogy to our previous work, two orthogonal assays were used for screening (Figure S2). […] Dose responses of compounds were performed in the absence and presence of the C-RAF259 phospho-peptide to distinguish between neutral binders and cooperative molecular glues. The experiment was performed as a time course, with measurements every 8 h, after an 1 h incubation. Additionally, the compounds were tested in a fluorescence anisotropy (FA) assay in the presence of the 5-carboxyfluorescein-(FAM)-labeled C-RAF259 peptide. […] The full dose–response data for all compounds are available in the SI (Tables S2–S5, Figures S5–S8, Figures S15–S18, Figures S25–S32, Figures S37–S39). The dose–response data from both assays were also visually compared in the form of bar graphs. […] For FA experiments, the EC50 values from the overnight measurement were calculated and plotted as bar graphs showing the […] log EC50 value (pEC50). Compounds acting as MGs were expected to show increases in both types of bar graphs.
# (§2) transferred in the assay plates.
# (§3) The reacton mixtures were incubated
# (§4) dispensed in the assay plates.
# (§5) incubaton at room temperature .
# 14-3-3σ = target: T2, 14-3-3σ (Homo sapiens, UniProt P31947); test: Intact mass spectrometry assay, apo (no peptide); set-up: full-length for mass spectrometry and fluorescence anisotropy assays; made in house; host or cells: E. coli Rosetta 2(DE3)pLysS, pPROEX HTb vector; settings: 1 μM compound, 100 nM 14-3-3σ
# T2 sequence (P31947 1-248): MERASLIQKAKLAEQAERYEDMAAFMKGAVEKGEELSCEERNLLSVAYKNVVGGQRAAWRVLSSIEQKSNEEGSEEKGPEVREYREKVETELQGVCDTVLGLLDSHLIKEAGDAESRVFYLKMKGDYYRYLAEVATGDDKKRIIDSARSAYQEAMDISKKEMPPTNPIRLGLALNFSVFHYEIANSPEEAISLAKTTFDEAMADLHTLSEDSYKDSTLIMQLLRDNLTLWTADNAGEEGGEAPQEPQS
# Procedure: as §1, §2, §3, §4, §5
# 14-3-3σ/C-RAF259 [2] = target: T1, 14-3-3σ/C-RAF259; test: Intact mass spectrometry assay with C-RAF259 phospho-peptide; set-up: full-length for mass spectrometry and fluorescence anisotropy assays; made in house; host or cells: E. coli Rosetta 2(DE3)pLysS (14-3-3σ); peptides from Elim Biopharmaceuticals; settings: 1 μM compound, 100 nM 14-3-3σ, 18 µM peptide
# Procedure: as §1, §2, §3, §4, §5
Structure (SMILES),EC50 (14-3-3σ/C-RAF259 [1]),"% bound, APO, 1h (14-3-3σ)","% bound, APO, 8h (14-3-3σ)","% bound, APO, 16h (14-3-3σ)","% bound, APO, 24h (14-3-3σ)","% bound, C-RAF259 (11mer), 1h (14-3-3σ/C-RAF259 [2])","% bound, C-RAF259 (11mer), 8h (14-3-3σ/C-RAF259 [2])","% bound, C-RAF259 (11mer), 16h (14-3-3σ/C-RAF259 [2])","% bound, C-RAF259 (11mer), 24h (14-3-3σ/C-RAF259 [2])"
O=C(CCl)NCC1CCN(S(=O)(=O)Cc2ccccc2)CC1 [Compound 6],> 1000 µM,0%,1%,4.7%,4.7%,0.9%,2.9%,6.5%,7%
O=C(CCl)NCC1CCN(S(=O)(=O)Cc2ccc(F)cc2)CC1 [Compound 7],> 1000 µM,1%,1.9%,1.9%,2.9%,1.5%,1.5%,2.5%,4.7%
O=C(CCl)NCC1CCN(S(=O)(=O)Cc2ccc(Cl)cc2)CC1 [Compound 9],> 1000 µM,0%,0%,1.5%,1.9%,0%,0.5%,2.9%,3.2%
O=C(CCl)NCC1CCN(S(=O)(=O)c2ccccc2)CC1 [Compound 10],66 ± 4 µM,4.7%,4.7%,4.7%,4.7%,4.7%,5.6%,5.7%,13%
O=C(CCl)NCCCC1CCN(S(=O)(=O)c2ccc(Cl)cc2)CC1 [Compound 13],> 1000 µM,0%,1.5%,2.5%,4.3%,0.9%,2.9%,5.6%,14.1%
O=C(CCl)NCC1CCN(S(=O)(=O)c2ccc(Cl)nc2)CC1 [Compound 14],82 ± 6 µM,1.9%,2.5%,3%,15%,4.7%,7.4%,9.9%,20.9%
O=C(CCl)NCC1CCN(S(=O)(=O)c2ccccc2F)CC1 [Compound 15],87 ± 9 µM,0.5%,1.9%,2.4%,2.4%,3.3%,8.2%,13.7%,23.3%
O=C(CCl)NCC1CCN(S(=O)(=O)c2cccc(F)c2)CC1 [Compound 16],> 150 µM,0%,1%,1.9%,2.9%,3.3%,8.2%,18%,32.4%
O=C(CCl)NCC1CCN(S(=O)(=O)c2cccc(C(F)(F)F)c2)CC1 [Compound 17],> 150 µM,0%,0%,0.5%,0.9%,1.9%,3.4%,6.5%,12.3%
N#Cc1ccc(S(=O)(=O)N2CCC(CNC(=O)CCl)CC2)cc1 [Compound 20],> 150 µM,0%,0.5%,1.5%,2.9%,4.7%,12.1%,23.9%,42.3%
COc1ccc(S(=O)(=O)N2CCC(CNC(=O)CCl)CC2)cc1 [Compound 25],57 ± 9 µM,0.5%,1.9%,7.4%,13.8%,10.6%,15%,27.1%,44.4%
O=C(CCl)NCC1CCN(S(=O)(=O)c2ccc3c(c2)OCO3)CC1 [Compound 26],26 ± 3 µM,0%,0%,1.9%,5.2%,4.3%,11.3%,22.6%,34.1%
O=C(CCl)NCC1CCN(S(=O)(=O)c2ccc(F)cc2F)CC1 [Compound 27],> 150 µM,1%,–,3.8%,5.2%,6.9%,14.1%,27.5%,50.3%
O=C(CCl)NCC1CCN(S(=O)(=O)c2ccc(F)c(F)c2)CC1 [Compound 28],88 ± 2 µM,1.9%,4.7%,6.5%,9.1%,4.3%,15.2%,27.5%,40%
O=C(CCl)NCC1CCN(S(=O)(=O)c2ccc(C(F)(F)F)c(F)c2)CC1 [Compound 32],4 ± 1 µM,–,–,–,–,–,–,–,–
O=C(CCl)NCC1CCN(S(=O)(=O)c2ccc(Br)c(F)c2)CC1 [Compound 37],5 ± 1 µM,–,–,–,–,–,–,–,–
O=C(CCl)N1CC2(C1)CN(S(=O)(=O)c1ccc(C(F)(F)F)c(F)c1)CCO2 [Compound 80],9 ± 2 µM,–,–,–,–,–,–,–,–
O=C(CCl)N1CC2(CCCN(S(=O)(=O)c3ccc(Br)c(F)c3)C2)C1 [Compound 83],5 ± 2 µM,–,–,–,–,–,–,–,–

# From publication PMC12903857
